Measured values: US10800778B2 (Entasis Therapeutics Limited, priority 2016, dated 2020)
Counter-ions that a name gives are not always drawn.

Tests used:
[1] = Stability in pH 7.4 buffer (no enzyme); format: physicochemical; details: read-out: T1/2 pH 7.4 Buffer
Protocol: (§1) The human intestinal S9 with the absence of PMSF, human liver S9, rat intestinal S9, and rat liver S9 preparations were obtained from Xenotech (Lenexa, Kans.). The 500-μL incubation solution contained 0.8 mg/mL of enzyme (or no enzyme for buffer stability), 10 μM of test compounds in 100 mM of HEPES buffer, pH 7.4. The hydrolysis reactions were conducted in a 1-mL glass insert (Analytical Sales, Pompton Plains, N.J.) in a shake water bath at 37° C. At 0, 2, 5, 10, 15, 30 and 60 min, the reaction was terminated by pipetting 50 μL incubate to a 96 DeepWell plate (Thermo Fisher Scientific, Rochester, N.Y.) containing 100 μL of acetonitrile with 250 ng/mL of Carbutamide (Sigma-Aldrich, St. Louis, Miss.) as the internal standard. The crashed solutions were then vortexed well followed by centrifuge at 4000 rpm for 15 min at 4° C. The extract was transferred to a new 96 DeepWell plate for LC-MS/MS analysis.
(§2) LC-MS/MS analysis was done using an AB Sciex QTrap 6500 mass spectrometer under positive ionization mode, coupled to a Schimadzu Nexera LC system.
(§3) A Waters Atlantis T3 (3 μm, 3.0×50 mm) column was used for separation. The mobile phase consisted 0.1% formic acid in water (A) and 0.1% formic acid in acetonitrile (B) with a flow rate set at 1.2 mL/min. For the prodrug analysis, the Multiple Reaction Monitoring (MRM) specific for each compound was set up so that both prodrug and its hydrolyzed active can be monitored simultaneously.
(§4) Half-lives listed are based on disappearance of starting ester.

[2] = Stability/conversion of esters in rat intestinal S9; format: in vitro ADME
Protocol: as §1, §2, §3, §4

[3] = Stability/conversion of esters in rat liver S9; format: in vitro ADME
Protocol: as §1, §2, §3, §4

[4] = Stability/conversion of esters in human intestinal S9; format: in vitro ADME
Protocol: as §1, §2, §3, §4

[5] = Stability/conversion of esters in human liver S9; format: in vitro ADME
Protocol: as §1, §2, §3, §4

[6] = molecular target: TEM-1 (Class A beta-lactamase) (Escherichia coli, UniProt P62593); experiment: Inhibition of beta-lactamase enzymes (nitrocefin hydrolysis), TEM-1; format: biochemical; details: read-out: Class A TEM-1 60 min IC50, nitrocefin 100 μM
Protocol: (§5) A buffer consisting of 0.1 M sodium phosphate (pH 7.0), 10 mM NaHCO3, and 0.005% Triton X-100 was used for all enzymes. The chromogenic substrate nitrocefin (SynGene, Bangalore, India) was used at 100 μM. Enzyme activity was monitored by the 490 nm absorbance increase upon nitrocefin hydrolysis. Assays were performed in clear polystyrene 384-well plates (Greiner Bio-One, Monroe, N.C.). Absorbance was measured for 1 hour at 30-s intervals using a Spectramax absorbance plate reader (Molecular Devices, Sunnyvale, Calif.). Measurement of beta-lactamase inhibition by INHIBITOR employed serial 3-fold dilutions of the inhibitor in assay buffer, ranging from 100 μM to 62.7 pM. A background absorbance progress curve for a control lacking enzyme and inhibitor was subtracted from each progress curve.
(§6) The complete set of progress curves for one enzyme with all inhibitor concentrations was subjected to numerical integration with the program Kintek Global Kinetic Explorer (Kintek Corp, Snowshoe Pa.) to obtain a best-fit to the mechanism shown in Scheme 10.
(§7) where E, S, ES, P, I, and EI are the concentrations of the enzyme, nitrocefin, the enzyme-nitrocefin complex, the nitrocefin hydrolysis product, INHIBITOR, and the enzyme-INHIBITOR complex respectively. […] The values of k+2, k+3, and k−3 were fit. Concentration series offsets of the absorbance measurements were used to correct for slight absorbance baseline differences between wells. The parameter k+3 is equivalent to the second order rate constant kinact/Ki. In some cases, the inhibition was in rapid equilibrium on the experimental time scale, so that only the ratio k−3/k+3=Ki could be determined. Although k−3 represents reversal of inhibitor binding in Scheme 10, hydrolysis of the enzyme-inhibitor complex could not be excluded based on kinetic measurements.
(§8) Best-fit absorbance values from the above procedure at each time point for each compound concentration were exported to Excel.
(§9) where A is the best-fit absorbance without inhibitor and Ainhib is the best-fit absorbance in the presence of the inhibitor.
(§10) where [I] is the inhibitor concentration and n is the Hill coefficient. The Excel add-in XLfit (ID Business Solutions) was used for nonlinear regression.

[7] = molecular target: OXA-48 (Class D beta-lactamase) (Klebsiella pneumoniae, UniProt Q6XEC0); experiment: Inhibition of beta-lactamase enzymes (nitrocefin hydrolysis), OXA-48; format: biochemical; details: read-out: Class D OXA-48 60 min IC50, nitrocefin 100 μM
Protocol: as §5, §6, §7, §8, §9, §10

[8] = intestinal S9, pH 7.4, read-out: T1/2 Rat Intestinal S9
[9] = liver S9, pH 7.4, read-out: T1/2 Rat Liver S9
[10] = intestinal S9 (without PMSF), pH 7.4, read-out: T1/2 Human Intestinal S9
[11] = liver S9, pH 7.4, read-out: T1/2 Human Liver S9
[12] = s9, pH 7.4, read-out: T1/2 Rat Intestinal S9
[13] = s9, pH 7.4, read-out: T1/2 Rat Liver S9
[14] = s9, pH 7.4, read-out: T1/2 Human Intestinal S9
[15] = s9, pH 7.4, read-out: T1/2 Human Liver S9

Sequence of OXA-48 (Class D beta-lactamase) (Q6XEC0 whole entry, looked up, species assumed): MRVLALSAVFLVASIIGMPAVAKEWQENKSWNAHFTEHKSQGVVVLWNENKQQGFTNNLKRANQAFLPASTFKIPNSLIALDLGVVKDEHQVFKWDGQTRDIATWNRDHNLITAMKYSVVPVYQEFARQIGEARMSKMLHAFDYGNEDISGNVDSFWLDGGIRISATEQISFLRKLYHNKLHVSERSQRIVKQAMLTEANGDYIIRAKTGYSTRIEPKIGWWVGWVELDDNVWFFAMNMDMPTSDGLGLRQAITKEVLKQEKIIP
Sequence of TEM-1 (Class A beta-lactamase) (P62593 whole entry, looked up, species assumed): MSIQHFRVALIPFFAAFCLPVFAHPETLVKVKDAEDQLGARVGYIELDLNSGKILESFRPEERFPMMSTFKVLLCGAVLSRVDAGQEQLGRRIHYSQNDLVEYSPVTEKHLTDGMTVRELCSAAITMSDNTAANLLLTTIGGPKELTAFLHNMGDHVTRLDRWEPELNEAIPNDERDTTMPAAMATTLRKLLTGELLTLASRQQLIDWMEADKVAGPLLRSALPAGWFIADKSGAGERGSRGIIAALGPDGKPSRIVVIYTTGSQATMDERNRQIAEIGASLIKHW

CCCCCCCCOC(=O)[C@@H](F)ON1C(=O)N2C[C@H]1C=C(C)[C@H]2C(N)=O [Example 45, octyl (2R)-2-[[(2S,5R)-2-carbamoyl-3-methyl-7-oxo-1,6-diazabicyclo[3.2.1]oct-3-en-6-yl]oxy]-2-fluoro-acetate]
half-life at 10 μM ([1]; HEPES buffer without enzyme): 33 min | half-life at 10 μM [2, 8]: 17 min | half-life at 10 μM [3, 9]: 0.22 min | half-life at 10 μM [4, 10]: 2 min | half-life at 10 μM [5, 11]: 0.39 min

CC1=C[C@@H]2CN(C(=O)N2O[C@@H](F)C(=O)OC(C)C)[C@@H]1C(N)=O [Example 13, propan-2-yl (2S)-{[(2S,5R)-2-carbamoyl-3-methyl-7-oxo-1,6-diazabicyclo[3.2.1]oct-3-en-6-yl]oxy}(fluoro)ethanoate]
half-life at 10 μM ([1]; HEPES buffer without enzyme): 55 min | half-life at 10 μM [4, 10]: 44 min | half-life at 10 μM [5, 11]: 1 min

CCOC(=O)[C@H](F)ON1C(=O)N2C[C@H]1C(C)=C[C@H]2C(N)=O [Example 32, (2S)-ethyl 2-(((2S,5R)-2-carbamoyl-4-methyl-7-oxo-1,6-diazabicyclo[3.2.1]oct-3-en-6-yl)oxy)-2-fluoroacetate]
half-life at 10 μM ([1]; buffer): 22 min | half-life at 10 μM [2, 12]: 18 min | half-life at 10 μM [3, 13]: 2.4 min | half-life at 10 μM [4, 14]: 6.9 min | half-life at 10 μM [5, 15]: 2.4 min

CC[C@H](C)OC(=O)[C@@H](F)ON1C(=O)N2C[C@H]1C=C(C)[C@H]2C(N)=O [Example 20, (2R)-(S)-sec-butyl 2-(((2S,5R)-2-carbamoyl-3-methyl-7-oxo-1,6-diazabicyclo[3.2.1]oct-3-en-6-yl)oxy)-2-fluoroacetate]
half-life at 10 μM ([1]; buffer): 39 min | half-life at 10 μM [2, 12]: 54 min | half-life at 10 μM [3, 13]: 6.1 min | half-life at 10 μM [4, 14]: 40 min | half-life at 10 μM [5, 15]: 5.1 min

C=CCOC(=O)[C@@H](F)ON1C(=O)N2C[C@H]1C=C(C)[C@H]2C(N)=O [Example 47, allyl (2R)-2-[[(2S,5R)-2-carbamoyl-3-methyl-7-oxo-1,6-diazabicyclo[3.2.1]oct-3-en-6-yl]oxy]-2-fluoro-acetate]
half-life at 10 μM ([1]; HEPES buffer without enzyme): 12 min | half-life at 10 μM [2, 8]: 11 min | half-life at 10 μM [3, 9]: 1.8 min | half-life at 10 μM [4, 10]: 8.2 min | half-life at 10 μM [5, 11]: 2.3 min

CC1=C[C@@H](C(N)=O)N2C[C@@H]1N(O[C@@H](F)C(=O)OC(C)C)C2=O [Example 36, (2S)-isopropyl 2-(((2S,5R)-2-carbamoyl-4-methyl-7-oxo-1,6-diazabicyclo[3.2.1]oct-3-en-6-yl)oxy)-2-fluoroacetate]
half-life at 10 μM ([1]; buffer): 91 min | half-life at 10 μM [2, 12]: 68 min | half-life at 10 μM [3, 13]: 3 min | half-life at 10 μM [4, 14]: 36 min | half-life at 10 μM [5, 15]: 8.5 min

CC1=C[C@@H]2CN(C(=O)N2O[C@H](F)C(=O)OCC(C)C)[C@@H]1C(N)=O [Example 49, isobutyl (2R)-2-[[(2S,5R)-2-carbamoyl-3-methyl-7-oxo-1,6-diazabicyclo[3.2.1]oct-3-en-6-yl]oxy]-2-fluoro-acetate]
half-life at 10 μM ([1]; HEPES buffer without enzyme): 68 min | half-life at 10 μM [2, 8]: 26 min | half-life at 10 μM [3, 9]: 1.8 min | half-life at 10 μM [4, 10]: 32 min | half-life at 10 μM [5, 11]: 6.9 min

CC[C@@H](C)OC(=O)[C@@H](F)ON1C(=O)N2C[C@H]1C=C(C)[C@H]2C(N)=O [Example 22, (2R)-(R)-sec-butyl 2-(((2S,5R)-2-carbamoyl-3-methyl-7-oxo-1,6-diazabicyclo[3.2.1]oct-3-en-6-yl)oxy)-2-fluoroacetate]
half-life at 10 μM ([1]; buffer): 38 min | half-life at 10 μM [2, 12]: 56 min | half-life at 10 μM [3, 13]: 9.2 min | half-life at 10 μM [4, 14]: 43 min | half-life at 10 μM [5, 15]: 4.6 min

CCOC(=O)[C@@H](F)ON1C(=O)N2C[C@H]1C(C)=C[C@H]2C#N [Example 94, ethyl (2R)-2-(((2S,5R)-2-cyano-4-methyl-7-oxo-1,6-diazabicyclo[3.2.1]oct-3-en-6-yl)oxy)-2-fluoroacetate]
half-life at 10 μM ([1]; buffer): 46.9 min | half-life at 10 μM [2, 12]: 25.9 min | half-life at 10 μM [3, 13]: 1.3 min | half-life at 10 μM [4, 14]: 10.6 min

CC1=C[C@@H]2CN(C(=O)N2O[C@@H](F)C(=O)O)[C@@H]1C(=O)NCNS(N)(=O)=O [Example 89, lithium salt]
IC50 [6]: 0.033 µM | IC50 [7]: 0.15 µM

CC1=C[C@@H]2CN(C(=O)N2O[C@@H](F)C(=O)O)[C@@H]1C(=O)NCc1ncco1 [Example 68, (2S)-2-fluoro-2-[[(2S,5R)-3-methyl-2-(oxazol-2-ylmethylcarbamoyl)-7-oxo-1,6-diazabicyclo[3.2.1]oct-3-en-6-yl]oxy]lacetic acid lithium salt]
IC50 [6]: 0.31 µM | IC50 [7]: 0.078 µM

CC1=C[C@@H]2CN(C(=O)N2O[C@@H](F)C(=O)O)[C@@H]1CNC(=O)C(F)(F)F [Example 79, (2S)-2-fluoro-2-[[(2S,5R)-3-methyl-7-oxo-2-[[(2,2,2-trifluoroacetyl)-aminolmethyl]-1,6-diazabicyclo[3.2.1]oct-3-en-6-yl]oxy]acetic acid lithium salt]
IC50 [6]: 4.2 µM | IC50 [7]: 5.7 µM

NC(=O)[C@@H]1C(C2CC2)=C[C@@H]2CN1C(=O)N2OC(F)C(=O)O (stereo in doubt) [Example 42, (2R)-2-(((2S,5R)-2-carbamoyl-3-cyclopropyl-7-oxo-1,6-diazabicyclo[3.2.1]oct-3-en-6-yl)oxy)-2-fluoroacetic acid lithium salt]
IC50 [6]: 0.024 µM | IC50 [7]: 0.0052 µM

CC1=C[C@@H](C#N)N2C[C@@H]1N(O[C@H](F)C(=O)O)C2=O [Example 95, (2R)-2-(((2S,5R)-2-cyano-4-methyl-7-oxo-1,6-diazabicyclo[3.2.1]oct-3-en-6-yl)oxy)-2-fluoroacetic acid lithium salt]
IC50 [6]: 0.035 µM | IC50 [7]: 0.0013 µM

CC1=C[C@@H]2CN(C(=O)N2O[C@@H](F)C(=O)O)[C@@H]1C(=O)NCCCS(N)(=O)=O [Example 74, (2S)-2-fluoro-2-[[(2S,5R)-3-methyl-7-oxo-2-(3-sulfamoylpropylcarbamoyl)-1,6-diazabicyclo[3.2.1]oct-3-en-6-yl]oxy]acetic acid lithium salt]
IC50 [6]: 0.28 µM | IC50 [7]: 0.59 µM

CC1=C[C@@H](C(N)=O)N2C[C@@H]1N(OC(F)(F)C(=O)O)C2=O [Example 91, 2-(((2S,5R)-2-carbamoyl-4-methyl-7-oxo-1,6-diazabicyclo[3.2.1]oct-3-en-6-yl)oxy)-2,2-difluoroacetic acid lithium salt]
IC50 [6]: 0.00047 µM | IC50 [7]: 0.018 µM

CC1=C[C@@H]2CN(C(=O)N2O[C@@H](F)C(=O)O)[C@@H]1C(=O)NOCCS(N)(=O)=O [Example 56, (2S)-2-fluoro-2-[[(2S,5R)-3-methyl-7-oxo-2-(2-sulfamoylethoxycarbamoyl)-1,6-diazabicyclo[3.2.1]oct-3-en-6-yl]oxy]acetic acid lithium salt]
IC50 [6]: 0.093 µM | IC50 [7]: 0.22 µM

CCC(CC)OC(=O)[C@@H](F)ON1C(=O)N2C[C@H]1C=C(C)[C@H]2C(N)=O [Example 24, (R)-pentan-3-yl 2-((2S,5R)-2-carbamoyl-3-methyl-7-oxo-1,6-diazabicyclo[3.2.1]oct-3-en-6-yloxy)-2-fluoroacetate]
half-life at 10 μM ([1]; buffer): > 100 min | half-life at 10 μM [4, 14]: 34 min | half-life at 10 μM [5, 15]: 9 min
